pIC50: −log10 of the molar value.
What was measured:
[1] = test system: spontaneous hypertensive rats; test: Hypotensive effect on spontaneous hypertensive rats; format: in vivo, rat; conditions: dose 1 mg/kg, oral, in 0.5% methylcellulose; 15 to 25-week-old male spontaneous hypertensive rats
Method: Test 3 [Hypotensive effect on spontaneous hypertensive rats]
15 to 25-Week-old male spontaneous hypertensive rats with mean arterial blood pressure of about 160-200 mmHg, weighing 300-350 g, were used. The animals were cannulated in the left femoral artery and the mean blood pressure and heart rate were measured with a pressure-transducer. The animals were deprived of food for about 18 hours before oral dosing. The Test Compound was suspended in 0.5% methylcellulose, and given orally.

[2] = test system: reserpine-induced DOPA accumulation; test: Inhibition of reserpine-induced DOPA accumulation; format: in vivo, Male SD rats; conditions: dose 3.2 mg/kg, oral, 2 hours before sacrifice; reserpine 1 mg/kg s.c. 17-19 hours before; striatum DOPA
Method: Test 2 [Inhibition of reserpine-induced DOPA accumulation]
Male SD rats weighing 300-400 g were used in this test. Rats were pretreated with reserpine (1 mg/kg, S.C.) 17-19 hours before sacrifice and then fasted. Test Compound was given orally to the rats 2 hours before sacrifice. [m-Hydroxybenzylhydrazine (100 mg/kg, i.p.) was given 30 minutes before sacrifice.] Each rat was exposed to microwaves using a head-focus microwave applicator for 1.5 seconds. The whole brain was removed and further separated into the striatum.
DOPA was determined as follows; the striatum was homogenized in 9 volumes of 0.1N perchloric acid solution (0.4% EDTA·2Na). The homogenate was centrifuged at 10,000 rpm for 1 minutes. The supernatant was applied to high performance liquid chromatography.

DA2 receptor = target: T1, DA2 receptor (Rattus norvegicus, UniProt P61169); test: Dopamine receptor (DA2 receptor) binding assay; conditions: [3H]spiperone 0.2 nM; rat striatum 160 μg/ml; 37° C., 10 minutes, pH 7.4
T1 construct: The final tissue concentration of rat striatum was 160 μg/ml; from tissue; host or cells: rat striatum (printed 'stratum'), washed homogenate
T1 sequence (P61169 whole entry): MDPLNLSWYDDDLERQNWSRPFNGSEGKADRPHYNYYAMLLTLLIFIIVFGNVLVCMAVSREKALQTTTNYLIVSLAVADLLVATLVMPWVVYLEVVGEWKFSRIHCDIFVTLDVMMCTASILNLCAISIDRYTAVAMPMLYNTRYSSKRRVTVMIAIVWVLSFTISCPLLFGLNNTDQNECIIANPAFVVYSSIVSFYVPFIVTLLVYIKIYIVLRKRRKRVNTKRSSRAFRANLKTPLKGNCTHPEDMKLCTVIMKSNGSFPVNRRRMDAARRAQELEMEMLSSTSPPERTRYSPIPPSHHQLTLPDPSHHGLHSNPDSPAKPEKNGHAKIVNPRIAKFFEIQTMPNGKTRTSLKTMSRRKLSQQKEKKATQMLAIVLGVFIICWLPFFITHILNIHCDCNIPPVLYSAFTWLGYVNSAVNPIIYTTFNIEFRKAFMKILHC
Method: Test 1 [Dopamine receptor (DA2 receptor) binding assay]
The affinity for DA2 receptor of a Test Compound was determined following in vitro receptor binding assays.
Male rats weighing 150-300 g were decapitated and the stratum were dissected from their brains. The tissue was homogenized in 30 volumes of buffer which consisted of 50 mM Tris-HCl (pH 7.4 at 25° C.), 120 mM sodium chloride, 5 mM potassium chloride, 1 mM calcium chloride, 1 mM magnesium chloride, 10 μM pargirine, and 0.1% ascorbic acid. The homogenate was centrifuged at 50,000 g for 15 minutes. The pellet was resuspended in 30 volumes of the buffer. The tissue suspension was centrifuged and suspended again in the same way.
Incubation tubes received 100 μl of [phenyl-4-^3 H]spiperone, 100 μl of the Test Compound and 0.8 ml of tissue suspension during binding assays. The concentration of [phenyl-4-^3 H]spiperone was 0.2 nM. The final tissue concentration of rat striatum was 160 μg/ml. […] The filters were counted by liquid scintillation counter.
Specific binding of the [^3 H]spiperone was determined in the presence of 1 μM butaclamol. The IC50 value of the Test Compound was calculated from the data of [^3 H]spiperone binding in the presence of 10^-9 M, 10^-8 M, 10^-7 M and 10^-6 M Test Compound.

`Br.O=c1[nH]c(=O)n(CCCCN2CC=C(c3ccccc3)CC2)c2cc(O)ccc12` [Compound A, 1-[4-(4-phenyl-1,2,3,6-tetrahydropyridin-1-yl)butyl]-7-hydroxy-2,4(1H,3H)-quinazolinedione hydrobromide] was tested, and the “Maximum decrease of blood pressure (%)” value [1] was 19%, the “Inhibition (%)” value [2] was 10% and the pIC50 (DA2 receptor) was 8.13.

Reference: patent US5304560A, “Quinazoline derivatives and their preparation” (Fujisawa Pharmaceutical Co., Ltd., priority 1990, dated 1994)
